Experimental data published in patent publication US8163952B2, “RAR receptor agonist ligands and use thereof in human medicine and cosmetics” (Galderma Research & Development, priority 2007, dated 2012).

How the values were obtained:
[1] = target: T1, RARγ (Homo sapiens, UniProt P13631); assay: Transactivation assay (luciferase reporter, crossed curves vs reference agonist, Schild regression); assay type: cell-based; conditions: HeLa stable transfectants, ERE-βGlob-Luc-SV-Neo reporter and RARγ ER-DBD-puro; 18 hours incubation; apparent Kd; read-out: RARγ Kdapp
T1 sequence (P13631 185-454 limits assumed): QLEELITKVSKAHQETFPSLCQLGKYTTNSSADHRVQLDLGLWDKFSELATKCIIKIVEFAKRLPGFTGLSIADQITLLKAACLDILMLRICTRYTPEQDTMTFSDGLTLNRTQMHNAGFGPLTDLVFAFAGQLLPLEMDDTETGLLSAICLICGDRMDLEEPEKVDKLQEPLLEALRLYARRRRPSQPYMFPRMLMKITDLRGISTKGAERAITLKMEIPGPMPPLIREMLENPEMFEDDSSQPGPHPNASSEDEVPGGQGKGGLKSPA
Description: (§1) This activity on RARα, β and γ receptors is measured in a transactivation test and quantified by means of the dissociation constant Kdapp (apparent).
(§2) The activation of receptors with an agonist (activator) in HeLa cells leads to the expression of a reporter gene, luciferase, which, in the presence of a substrate, generates light. The activation of the receptors can thus be measured by quantifying the luminescence produced after incubation of the cells in the presence of a reference agonist. Inhibitory products will displace the agonist from its site, thus preventing activation of the receptor. The activity is measured by quantifying the decrease in light produced. This measurement makes it possible to determine the inhibitory activity of the compounds according to the invention.
(§3) In this study, a constant is determined which represents the affinity of the molecules for the receptor. Since this value can fluctuate depending on the basal activity and the expression of the receptor, it is referred to as the Kd apparent (KdApp).
(§4) To determine this constant, “crossed curves” of the test product against a reference agonist, 4-[2-(5,5,8,8-tetramethyl-5,6,7,8-tetrahydronaphthalen-2-yl)propenyl]benzoic acid, are realized in 96-well plates. The test product is used at 10 concentrations and the reference agonist at 7 concentrations. In each well, the cells are in contact with a concentration of the test product and with a concentration of the reference agonist, 4-[2-(5,5,8,8-tetramethyl-5,6,7,8-tetrahydronaphthalen-2-yl)]propenyl]benzoic acid. Measurements are also carried out for the total agonist control (4-[2-(5,5,8,8-tetramethyl-5,6,7,8-tetrahydro-naphthalen-2-yl)propenyl]benzoic acid) and the inverse agonist control, 4-{(E)-3[4-(4-tert-butylphenyl)-5,5,8,8-tetramethyl-5,6,7,8-tetrahydronaphthalen-2-yl]-3-oxopropenyl}benzoic acid.
(§5) These AC50 values are used to calculate the Schild regression by plotting a straight line corresponding to the Schild equation (“Quantitation in receptor pharmacology” Tervy P. Kenakin, Receptors and Channels, 2001, 7, 371-385).
(§6) The HeLa cell lines used are stable transfectants containing the ERE-βGlob-Luc-SV-Neo (reporter gene) and RAR (α, β, γ) ER-DBD-puro plasmids. These cells are seeded in 96-well plates at a rate of 10 000 cells per well in 100 μl of DMEM medium without phenol red, supplemented with 10% of defatted calf serum. The plates are then incubated at 37° C., 7% CO2, for 4 hours.
(§7) The plates are then incubated for 18 hours at 37° C., 7% CO2. The culture medium is removed by turning the plates over, and 100 μl of a 1:1 PBS/luciferin mixture are added to each well. After 5 minutes, the plates are read using a luminescence reader.

[2] = target: T2, RARα (Homo sapiens, UniProt P10276); assay: as above; assay type: cell-based; conditions: HeLa stable transfectants, ERE-βGlob-Luc-SV-Neo reporter and RARα ER-DBD-puro; 18 hours incubation; apparent Kd; read-out: RARα Kdapp
T2 sequence (P10276 183-462 limits assumed): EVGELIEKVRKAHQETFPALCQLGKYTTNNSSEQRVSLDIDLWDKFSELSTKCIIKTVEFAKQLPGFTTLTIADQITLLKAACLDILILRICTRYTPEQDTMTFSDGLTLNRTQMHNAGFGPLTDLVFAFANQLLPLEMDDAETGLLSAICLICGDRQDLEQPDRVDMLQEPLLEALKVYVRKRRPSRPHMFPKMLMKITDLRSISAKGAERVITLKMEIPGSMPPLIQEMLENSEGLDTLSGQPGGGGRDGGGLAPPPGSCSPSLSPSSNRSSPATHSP
Description: as §1, §2, §3, §4, §5, §6, §7

[3] = target: T3, RARβ (Homo sapiens, UniProt P10826); assay: as above; assay type: cell-based; conditions: HeLa stable transfectants, ERE-βGlob-Luc-SV-Neo reporter and RARβ ER-DBD-puro; 18 hours incubation; apparent Kd; read-out: RARβ Kdapp
T3 sequence (P10826 154-455 limits assumed): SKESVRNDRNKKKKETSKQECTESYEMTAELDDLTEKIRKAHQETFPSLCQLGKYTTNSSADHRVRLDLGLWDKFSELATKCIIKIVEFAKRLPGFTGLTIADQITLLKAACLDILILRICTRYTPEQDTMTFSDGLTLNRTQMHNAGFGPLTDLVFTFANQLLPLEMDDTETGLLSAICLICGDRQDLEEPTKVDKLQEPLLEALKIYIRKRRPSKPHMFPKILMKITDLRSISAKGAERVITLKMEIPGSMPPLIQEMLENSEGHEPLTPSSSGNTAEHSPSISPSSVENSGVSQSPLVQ
Description: as §1, §2, §3, §4, §5, §6, §7

| melting point | Kd [1] | Kd [2] | Kd [3] | Structure (SMILES) |
| --- | --- | --- | --- | --- |
| 140 °C | 37.5 nM | 625 nM | 185 nM | CCN(CC)c1ccc(C(O)C#Cc2ccc(C(=O)O)cc2)cc1C(C)(C)C (stereo not drawn) [Compound of example 1, 4-[3-(3-tert-butyl-4-diethylaminophenyl)-3-hydroxyprop-1-ynyl]benzoic acid] |
| – | 1 nM | 1000 nM | 120 nM | CC(C)c1cc(C(O)C#Cc2ccc(C(=O)O)c(O)c2)cc(C(C)C)c1N(C)C (stereo not drawn) [Compound of example 10, 4-[3-(4-Dimethylamino-3,5-diisopropylphenyl)-3-hydroxyprop-1-ynyl]-2-hydroxybenzoic acid] |
| – | 15 nM | 250 nM | 120 nM | CN(C)c1ccc(C(O)C#Cc2ccc(C(=O)O)cc2)cc1C(C)(C)C (stereo not drawn) [Compound of example 3, 4-[3-(3-tert-butyl-4-dimethylaminophenyl)-3-hydroxyprop-1-ynyl]benzoic acid] |
| – | 30 nM | 1000 nM | 252 nM | CC(C)(C)c1cc(C(O)C#Cc2ccc(C(=O)O)cc2)ccc1N1CCCC1 (stereo not drawn) [Compound of example 4, 4-[3-(3-tert-butyl-4-pyrrolidin-1-ylphenyl)-3-hydroxyprop-1-ynyl]benzoic acid] |
| – | 30 nM | 1000 nM | 60 nM | CCN(CC)c1ccc(C(O)C#Cc2ccc(C(=O)O)cc2)cc1C(C)C (stereo not drawn) [Compound of example 11, 4-[3-(4-diethylamino-3-isopropylphenyl)-3-hydroxyprop-1-ynyl]benzoic acid] |
| – | – | 4010 nM | 2020 nM | CC(C)(C)c1cc(C(O)C#Cc2ccc(C(=O)O)cc2)ccc1N1CCCCC1 (stereo not drawn) [Compound of example 5, 4-[3-(3-tert-butyl-4-piperidin-1-ylphenyl)-3-hydroxyprop-1-ynyl]benzoic acid] |
| – | 0.5 nM | 60 nM | 60 nM | CC(C)c1cc(C(O)C#Cc2ccc(C(=O)O)cc2)cc(C(C)C)c1N(C)C (stereo not drawn) [Compound of example 9, 4-[3-(4-Dimethylamino-3,5-diisopropylphenyl)-3-hydroxyprop-1-ynyl]benzoic acid] |
| – | 60 nM | 250 nM | 500 nM | CCN(CC)c1ccc(C(O)C#Cc2ccc(C(=O)O)c(O)c2)cc1C(C)(C)C (stereo not drawn) [Compound of example 6, 4-[3-(3-tert-butyl-4-diethylaminophenyl)-3-hydroxyprop-1-ynyl]-2-hydroxybenzoic acid] |
| – | 4 nM | 250 nM | 60 nM | CN(C)c1c(Cl)cc(C(O)C#Cc2ccc(C(=O)O)c(O)c2)cc1C(C)(C)C (stereo not drawn) [Compound of example 8, 4-[3-(3-tert-butyl-5-chloro-4-dimethylaminophenyl)-3-hydroxyprop-1-ynyl]-2-hydroxybenzoic acid] |
| – | 2 nM | 120 nM | 15 nM | CN(C)c1c(Cl)cc(C(O)C#Cc2ccc(C(=O)O)cc2)cc1C(C)(C)C (stereo not drawn) [Compound of example 7, 4-[3-(3-tert-butyl-5-chloro-4-dimethylaminophenyl)-3-hydroxyprop-1-ynyl]benzoic acid] |
